# PMC3480357, “Fragment-Hopping-Based Discovery of a Novel Chemical Series of Proto-Oncogene PIM-1 Kinase Inhibitors” (PLoS ONE, 2012)
# How the values were obtained:
# [1] = design: method as in earlier work; conditions: SuperGen press release; cited from earlier work
# ARK5 = molecular target: T1, ARK5 (Homo sapiens, UniProt O60285); design: method as in PMID 21051136; conditions: 10 µM; average of two data points; cited from earlier work
# T1 sequence (O60285 1-661): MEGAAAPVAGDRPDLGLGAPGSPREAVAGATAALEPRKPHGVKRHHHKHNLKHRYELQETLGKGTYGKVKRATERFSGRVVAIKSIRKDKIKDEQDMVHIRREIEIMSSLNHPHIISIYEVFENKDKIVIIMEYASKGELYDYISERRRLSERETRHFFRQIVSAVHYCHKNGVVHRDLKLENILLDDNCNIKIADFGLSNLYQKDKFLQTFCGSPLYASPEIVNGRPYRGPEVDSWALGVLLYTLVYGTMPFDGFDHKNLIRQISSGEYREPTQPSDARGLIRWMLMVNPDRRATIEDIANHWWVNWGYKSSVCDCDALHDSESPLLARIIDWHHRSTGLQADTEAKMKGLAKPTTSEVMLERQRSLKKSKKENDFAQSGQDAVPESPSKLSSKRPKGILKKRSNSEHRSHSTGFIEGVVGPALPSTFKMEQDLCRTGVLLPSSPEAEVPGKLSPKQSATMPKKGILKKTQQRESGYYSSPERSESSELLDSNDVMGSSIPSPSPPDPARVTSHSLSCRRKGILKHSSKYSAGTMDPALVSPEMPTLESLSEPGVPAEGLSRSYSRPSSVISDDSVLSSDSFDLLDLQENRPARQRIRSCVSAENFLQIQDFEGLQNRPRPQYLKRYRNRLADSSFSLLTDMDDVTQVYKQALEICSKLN
# CK1-α1 = CK1-α1 (Homo sapiens, UniProt P48729); design: method as in PMID 21051136; conditions: 10 µM; average of two data points; cited from earlier work
# Chain of CK1-α1 (P48729 whole entry): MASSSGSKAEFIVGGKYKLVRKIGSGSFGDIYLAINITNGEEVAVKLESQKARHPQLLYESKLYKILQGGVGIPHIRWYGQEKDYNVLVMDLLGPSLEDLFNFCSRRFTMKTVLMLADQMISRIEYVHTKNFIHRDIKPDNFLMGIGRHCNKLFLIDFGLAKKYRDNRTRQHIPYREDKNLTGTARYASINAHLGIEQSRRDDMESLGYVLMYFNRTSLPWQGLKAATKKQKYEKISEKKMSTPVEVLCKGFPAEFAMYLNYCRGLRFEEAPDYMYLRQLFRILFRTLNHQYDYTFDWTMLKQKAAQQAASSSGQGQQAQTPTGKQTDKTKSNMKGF
# MST1 = molecular target: T2, MST1 (Homo sapiens, UniProt Q13043); design: method as in PMID 21051136; conditions: 10 µM; average of two data points; cited from earlier work
# T2 sequence (Q13043 1-487): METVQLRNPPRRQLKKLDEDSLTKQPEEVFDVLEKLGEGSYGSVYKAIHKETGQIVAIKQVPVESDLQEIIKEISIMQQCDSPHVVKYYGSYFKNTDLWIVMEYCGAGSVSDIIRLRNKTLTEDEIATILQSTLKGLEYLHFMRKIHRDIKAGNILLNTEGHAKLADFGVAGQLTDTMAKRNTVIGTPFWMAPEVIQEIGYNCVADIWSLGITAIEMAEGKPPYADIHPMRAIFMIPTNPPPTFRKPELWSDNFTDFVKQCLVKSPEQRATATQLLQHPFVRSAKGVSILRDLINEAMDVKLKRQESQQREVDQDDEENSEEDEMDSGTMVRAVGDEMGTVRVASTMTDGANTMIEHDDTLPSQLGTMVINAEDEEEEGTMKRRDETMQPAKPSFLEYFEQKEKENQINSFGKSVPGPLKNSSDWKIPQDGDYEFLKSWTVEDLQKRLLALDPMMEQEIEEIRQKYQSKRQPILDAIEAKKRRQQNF
# FAK = FAK (Homo sapiens, UniProt Q05397); design: method as in PMID 21051136; conditions: 10 µM; average of two data points; cited from earlier work
# MET = MET (Homo sapiens, UniProt P08581); design: method as in PMID 21051136; conditions: 10 µM; average of two data points; cited from earlier work
# Chain of MET (P08581 25-1390): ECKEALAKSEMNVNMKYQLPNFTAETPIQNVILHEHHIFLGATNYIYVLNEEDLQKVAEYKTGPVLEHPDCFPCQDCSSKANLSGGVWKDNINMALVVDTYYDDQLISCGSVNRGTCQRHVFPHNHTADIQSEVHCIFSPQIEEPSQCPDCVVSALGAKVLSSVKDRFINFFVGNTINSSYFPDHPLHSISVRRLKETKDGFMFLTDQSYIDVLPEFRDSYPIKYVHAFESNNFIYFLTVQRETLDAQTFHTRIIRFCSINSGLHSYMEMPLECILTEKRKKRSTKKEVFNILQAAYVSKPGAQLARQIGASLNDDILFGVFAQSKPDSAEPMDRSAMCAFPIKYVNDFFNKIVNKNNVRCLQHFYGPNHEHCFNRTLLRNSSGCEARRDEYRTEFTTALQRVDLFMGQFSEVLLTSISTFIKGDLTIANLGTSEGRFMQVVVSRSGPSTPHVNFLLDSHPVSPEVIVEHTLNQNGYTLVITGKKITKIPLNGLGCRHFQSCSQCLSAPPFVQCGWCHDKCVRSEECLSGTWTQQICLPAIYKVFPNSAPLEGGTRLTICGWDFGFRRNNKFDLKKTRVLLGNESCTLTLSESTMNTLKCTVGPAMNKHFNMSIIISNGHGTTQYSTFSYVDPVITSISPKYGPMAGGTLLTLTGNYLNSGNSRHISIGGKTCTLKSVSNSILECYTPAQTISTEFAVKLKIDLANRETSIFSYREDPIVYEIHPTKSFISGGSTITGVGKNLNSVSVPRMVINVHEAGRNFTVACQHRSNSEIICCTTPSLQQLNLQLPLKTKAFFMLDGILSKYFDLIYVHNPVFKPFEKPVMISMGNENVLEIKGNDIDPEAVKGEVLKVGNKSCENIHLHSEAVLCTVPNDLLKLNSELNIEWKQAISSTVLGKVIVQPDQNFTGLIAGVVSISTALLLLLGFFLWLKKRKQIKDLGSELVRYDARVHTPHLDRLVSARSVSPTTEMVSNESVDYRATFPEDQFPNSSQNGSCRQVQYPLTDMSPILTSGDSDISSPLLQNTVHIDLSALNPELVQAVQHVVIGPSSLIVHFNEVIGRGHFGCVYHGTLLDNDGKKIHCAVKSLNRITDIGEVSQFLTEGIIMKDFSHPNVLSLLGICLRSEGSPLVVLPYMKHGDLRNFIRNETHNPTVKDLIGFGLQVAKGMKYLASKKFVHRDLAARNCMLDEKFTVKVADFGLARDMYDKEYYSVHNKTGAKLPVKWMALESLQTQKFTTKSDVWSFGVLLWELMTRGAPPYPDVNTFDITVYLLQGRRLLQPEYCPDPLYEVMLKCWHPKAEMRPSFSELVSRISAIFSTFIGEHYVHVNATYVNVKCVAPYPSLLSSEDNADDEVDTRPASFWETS
# IGF1-R = IGF1-R (Homo sapiens, UniProt P08069); design: method as in PMID 21051136; conditions: 10 µM; average of two data points; cited from earlier work
# Chain of IGF1-R (P08069 31-1367, species assumed): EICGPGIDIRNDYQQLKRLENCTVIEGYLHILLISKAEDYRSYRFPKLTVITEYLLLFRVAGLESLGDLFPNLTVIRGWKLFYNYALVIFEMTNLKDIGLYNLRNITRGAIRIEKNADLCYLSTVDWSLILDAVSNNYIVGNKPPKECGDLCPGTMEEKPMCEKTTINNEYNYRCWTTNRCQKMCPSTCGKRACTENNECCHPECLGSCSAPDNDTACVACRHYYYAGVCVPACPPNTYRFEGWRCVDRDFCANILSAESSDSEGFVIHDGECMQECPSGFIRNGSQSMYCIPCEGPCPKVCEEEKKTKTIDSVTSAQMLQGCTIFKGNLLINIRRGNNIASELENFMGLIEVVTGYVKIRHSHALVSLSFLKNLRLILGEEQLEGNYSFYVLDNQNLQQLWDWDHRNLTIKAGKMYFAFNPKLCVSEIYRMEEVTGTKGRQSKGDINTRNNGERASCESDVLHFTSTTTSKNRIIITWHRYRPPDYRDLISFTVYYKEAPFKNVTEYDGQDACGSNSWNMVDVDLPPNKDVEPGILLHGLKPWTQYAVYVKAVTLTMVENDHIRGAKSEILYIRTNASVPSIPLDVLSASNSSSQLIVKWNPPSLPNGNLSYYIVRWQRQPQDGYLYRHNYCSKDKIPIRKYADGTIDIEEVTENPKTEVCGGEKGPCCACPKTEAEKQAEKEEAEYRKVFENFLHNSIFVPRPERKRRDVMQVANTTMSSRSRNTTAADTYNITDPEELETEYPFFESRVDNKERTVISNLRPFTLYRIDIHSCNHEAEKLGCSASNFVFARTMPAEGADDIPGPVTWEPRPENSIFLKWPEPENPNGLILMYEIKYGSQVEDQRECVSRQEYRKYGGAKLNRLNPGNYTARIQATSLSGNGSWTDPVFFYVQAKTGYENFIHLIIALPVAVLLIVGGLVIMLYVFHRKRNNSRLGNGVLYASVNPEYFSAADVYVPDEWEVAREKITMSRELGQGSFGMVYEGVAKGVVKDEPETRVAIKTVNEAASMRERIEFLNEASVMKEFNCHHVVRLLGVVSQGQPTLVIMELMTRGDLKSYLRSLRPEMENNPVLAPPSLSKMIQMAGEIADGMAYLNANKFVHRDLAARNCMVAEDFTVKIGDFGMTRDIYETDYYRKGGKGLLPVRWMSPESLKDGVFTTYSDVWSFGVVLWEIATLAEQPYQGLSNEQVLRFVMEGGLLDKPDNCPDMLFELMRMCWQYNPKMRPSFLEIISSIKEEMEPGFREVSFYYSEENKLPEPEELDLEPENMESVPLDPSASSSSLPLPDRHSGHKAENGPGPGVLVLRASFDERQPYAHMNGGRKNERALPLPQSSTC
# PAK1 = PAK1 (Homo sapiens, UniProt Q13153); design: method as in PMID 21051136; conditions: 10 µM; average of two data points; cited from earlier work
# JAK2 = JAK2 (Homo sapiens, UniProt O60674); design: method as in PMID 21051136; conditions: 10 µM; average of two data points; cited from earlier work
# SGK1 = molecular target: T3, SGK1 (Homo sapiens, UniProt O00141); design: method as in PMID 21051136; conditions: 10 µM; average of two data points; cited from earlier work
# T3 sequence (O00141 1-431): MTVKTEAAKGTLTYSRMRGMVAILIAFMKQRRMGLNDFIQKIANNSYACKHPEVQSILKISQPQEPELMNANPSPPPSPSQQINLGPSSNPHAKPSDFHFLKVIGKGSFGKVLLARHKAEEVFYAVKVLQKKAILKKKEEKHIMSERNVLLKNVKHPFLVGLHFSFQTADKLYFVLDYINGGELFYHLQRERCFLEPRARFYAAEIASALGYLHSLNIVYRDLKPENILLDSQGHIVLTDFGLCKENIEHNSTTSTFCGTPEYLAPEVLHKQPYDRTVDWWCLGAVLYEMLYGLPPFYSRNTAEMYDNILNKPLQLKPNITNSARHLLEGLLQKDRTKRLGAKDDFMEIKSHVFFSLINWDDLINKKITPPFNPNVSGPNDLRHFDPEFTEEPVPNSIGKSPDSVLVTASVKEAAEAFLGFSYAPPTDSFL
# AKT1 = AKT1 (Homo sapiens, UniProt P31749); design: method as in PMID 21051136; conditions: 10 µM; average of two data points; cited from earlier work
# Chain of AKT1 (P31749 whole entry, species assumed): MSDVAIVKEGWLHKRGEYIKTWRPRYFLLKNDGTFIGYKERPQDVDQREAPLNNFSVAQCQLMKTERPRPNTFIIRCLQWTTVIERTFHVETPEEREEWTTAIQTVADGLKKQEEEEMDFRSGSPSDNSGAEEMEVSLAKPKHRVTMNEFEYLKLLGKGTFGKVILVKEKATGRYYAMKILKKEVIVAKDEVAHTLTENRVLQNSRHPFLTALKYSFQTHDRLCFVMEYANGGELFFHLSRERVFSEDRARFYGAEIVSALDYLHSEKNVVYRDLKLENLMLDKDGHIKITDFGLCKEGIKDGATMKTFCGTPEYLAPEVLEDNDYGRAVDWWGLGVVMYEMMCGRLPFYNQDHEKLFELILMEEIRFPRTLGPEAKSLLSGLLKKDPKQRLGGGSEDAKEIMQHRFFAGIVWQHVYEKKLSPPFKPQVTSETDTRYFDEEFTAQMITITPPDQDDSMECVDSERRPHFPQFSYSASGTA
# B-RAF-V600E = B-RAF-V600E (Homo sapiens, UniProt P15056, V600E); design: method as in PMID 21051136; conditions: 10 µM; average of two data points; cited from earlier work
# Chain of B-RAF-V600E (P15056 whole entry V600E): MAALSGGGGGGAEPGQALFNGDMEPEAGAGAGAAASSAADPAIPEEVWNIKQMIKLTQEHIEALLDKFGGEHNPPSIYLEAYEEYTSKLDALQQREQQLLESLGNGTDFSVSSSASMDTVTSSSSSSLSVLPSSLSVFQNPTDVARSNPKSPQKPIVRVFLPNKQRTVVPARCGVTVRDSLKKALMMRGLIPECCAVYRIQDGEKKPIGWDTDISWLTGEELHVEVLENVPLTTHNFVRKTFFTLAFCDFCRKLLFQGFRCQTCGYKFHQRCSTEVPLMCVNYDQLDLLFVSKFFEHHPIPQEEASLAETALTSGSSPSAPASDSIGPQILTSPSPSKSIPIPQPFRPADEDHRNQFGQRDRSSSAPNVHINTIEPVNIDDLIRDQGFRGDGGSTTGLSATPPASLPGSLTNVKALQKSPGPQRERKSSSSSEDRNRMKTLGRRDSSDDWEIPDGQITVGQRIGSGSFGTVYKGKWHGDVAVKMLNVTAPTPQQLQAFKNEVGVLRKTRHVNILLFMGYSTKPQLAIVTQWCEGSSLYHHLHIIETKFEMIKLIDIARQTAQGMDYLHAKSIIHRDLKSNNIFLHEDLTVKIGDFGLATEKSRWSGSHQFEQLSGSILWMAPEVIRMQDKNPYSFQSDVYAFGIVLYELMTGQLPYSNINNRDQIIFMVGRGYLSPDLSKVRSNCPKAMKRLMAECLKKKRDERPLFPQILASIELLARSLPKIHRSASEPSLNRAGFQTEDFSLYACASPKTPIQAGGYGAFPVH
# PIM-2 = PIM-2 (Homo sapiens, UniProt Q9P1W9); design: method as in PMID 21051136; conditions: cited from earlier work
# Chain of PIM-2 (Q9P1W9 whole entry): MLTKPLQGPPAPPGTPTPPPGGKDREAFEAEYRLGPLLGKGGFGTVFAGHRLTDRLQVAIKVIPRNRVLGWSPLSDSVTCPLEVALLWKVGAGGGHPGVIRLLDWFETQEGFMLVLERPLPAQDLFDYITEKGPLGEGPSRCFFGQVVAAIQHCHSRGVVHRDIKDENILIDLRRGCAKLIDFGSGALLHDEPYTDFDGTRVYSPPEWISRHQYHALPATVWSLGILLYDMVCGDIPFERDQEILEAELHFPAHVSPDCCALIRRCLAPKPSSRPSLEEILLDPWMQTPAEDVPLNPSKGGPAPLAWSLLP
# hERG = hERG (Homo sapiens, UniProt Q12809); assay: hERG radioligand binding assay using [3H]-astemizole; conditions: duplicate
# INS-R = INS-R (Homo sapiens, UniProt P06213); assay: ProQinase kinase panel, % inhibition at fixed concentration; assay type: biochemical
# Chain of INS-R (P06213 980-1382 limits assumed, species assumed): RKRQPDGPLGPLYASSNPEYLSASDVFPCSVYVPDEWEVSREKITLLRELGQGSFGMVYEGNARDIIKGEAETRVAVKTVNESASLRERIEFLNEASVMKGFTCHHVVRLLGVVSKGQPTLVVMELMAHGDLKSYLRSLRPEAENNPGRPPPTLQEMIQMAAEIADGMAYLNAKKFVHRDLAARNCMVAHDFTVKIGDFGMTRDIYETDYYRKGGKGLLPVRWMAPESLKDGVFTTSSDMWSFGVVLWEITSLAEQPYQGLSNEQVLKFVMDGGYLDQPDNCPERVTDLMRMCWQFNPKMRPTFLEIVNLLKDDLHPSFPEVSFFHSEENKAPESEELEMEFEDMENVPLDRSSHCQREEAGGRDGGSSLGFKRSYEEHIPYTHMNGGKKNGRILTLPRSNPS
# Protocol: Once compounds 7 and 8 were synthesized, a pairwise comparison was performed to strictly evaluate the real impact of this fragment-hopping where imidazopyridazine is replaced by triazolopyridine.
smiles,measurement,setting,value
"CN1CCC(CNc2ccc3ncc(-c4cccc(OC(F)(F)F)c4)n3n2)CC1 [Compound 3, reference compound]",cardiac and pharmacokinetic data evaluation in Phase I trial,[1],failed to demonstrate a safe therapeutic window
Oc1ccc(-c2cnc3ccc(NCc4ccc(F)cc4)nn23)cc1 [Compound 1],ARK5 percentage of inhibition,ARK5,71%
same,CK1-α1 percentage of inhibition,CK1-α1,33%
same,MST1 percentage of inhibition,MST1,82%
same,FAK percentage of inhibition,FAK,48%
same,MET percentage of inhibition,MET,32%
same,IGF1-R percentage of inhibition,IGF1-R,26%
same,PAK1 percentage of inhibition,PAK1,7%
same,JAK2 percentage of inhibition,JAK2,48%
same,SGK1 percentage of inhibition,SGK1,73%
same,AKT1 percentage of inhibition,AKT1,0%
same,B-RAF-V600E percentage of inhibition,B-RAF-V600E,54%
same,IC50,PIM-2,0.42 µM
"CN1CCC(CNc2ccc3nnn(-c4cccc(OC(F)(F)F)c4)c3n2)CC1 [Compound 8, (1-Methyl-piperidin-4-ylmethyl)-[3-(3-trifluoromethoxy-phenyl)-3H-[1], [2], [3]triazolo[4,5-b]pyridin-5-yl]-amine]",IC50,hERG,5.4 µM
"Oc1ccc(-n2nnc3ccc(NCc4ccc(F)cc4)nc32)cc1 [Compound 7, 4-[5-(4-Fluoro-benzylamino)-[1], [2], [3]triazolo[4,5-b]pyridin-3-yl]-phenol]",INS-R improvement in percentage of inhibition,"INS-R; compound 7 vs compound 1, 10 µM",b (This designation indicates that the improvement in percentage of inhibition was equal or greater than 25%)
same,inhibition at 10 µM,"INS-R; inhibitor at 10 µM, average of two data points, read-out: INS-R percentage of inhibition",32%
